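How tested: cells in 96-well plates exposed to compound for 48 hours at five concentrations. GI50 is the concentration that inhibits growth by half.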 The source made the active and inactive calls. No stated cut-off is given here; in the data, active = GI50 up to about 1.1 µM and inactive = higher.
Columns and labels:
Assay in all cases: NCI-60 cell line screen, 48 h
A498 = system: A498
SK-MEL-2 = system: SK-MEL-2
HCT-116 = system: HCT-116
NCI-H460 = system: NCI-H460
DU-145 = system: DU-145
OVCAR-5 = system: OVCAR-5
MDA-N = system: MDA-N
PC-3 = system: PC-3
U-251 = system: U-251
HCT-15 = system: HCT-15
K562 = system: K562
NCI-H23 = system: NCI-H23
OVCAR-3 = system: OVCAR-3
MOLT-4 = system: MOLT-4
RXF 393 = system: RXF 393
LOX IMVI = system: LOX IMVI
Malme-3M = system: Malme-3M
BT-549 = system: BT-549
NCI-H226 = system: NCI-H226
IGROV-1 = system: IGROV-1

Structure (SMILES) | GI50 (A498) | GI50 (SK-MEL-2) | GI50 (HCT-116) | GI50 (NCI-H460) | GI50 (DU-145) | GI50 (OVCAR-5) | GI50 (MDA-N) | GI50 (PC-3) | GI50 (U-251) | GI50 (HCT-15) [µM] | GI50 (K562) | GI50 (NCI-H23) | GI50 (OVCAR-3) | GI50 (MOLT-4) | GI50 (RXF 393) | GI50 (LOX IMVI) | GI50 (Malme-3M) | GI50 (BT-549) | GI50 (NCI-H226) | GI50 (IGROV-1)
O=C1CSC(c2cccc(Oc3ccccc3)c2)N1c1cccc(Cl)c1Cl (stereo not drawn) | 26.1 µM (inactive) | 18.1 µM (inactive) | 21.2 µM (inactive) | 26 µM (inactive) | 45 µM (inactive) | 33.5 µM (inactive) | 21 µM (inactive) | 25.7 µM (inactive) | 18.2 µM (inactive) | 19.5 | 20.4 µM (inactive) | 27.5 µM (inactive) | 30.5 µM (inactive) | 22.5 µM (inactive) | 57.1 µM (inactive) | 13.6 µM (inactive) | 30.4 µM (inactive) | 19.9 µM (inactive) | 28.5 µM (inactive) | 
Nc1nc2cc(CNc3ccc(C(=O)NC(CCC(=O)O)C(=O)O)cc3)ccc2nc1-c1ccccc1 (stereo not drawn) | > 10 µM (inactive) | > 10 µM (inactive) | > 10 µM (inactive) | > 10 µM (inactive) | > 10 µM (inactive) | > 10 µM (inactive) | > 10 µM (inactive) | > 10 µM (inactive) | > 10 µM (inactive) | > 10 | > 10 µM (inactive) | > 10 µM (inactive) | > 10 µM (inactive) | > 10 µM (inactive) | > 10 µM (inactive) | > 10 µM (inactive) | > 10 µM (inactive) | > 10 µM (inactive) | > 10 µM (inactive) | > 10 µM (inactive)
CCC1c2[nH]c3ccccc3c2C[C@H]2C(=O)NC(Cc3c[nH]c4ccccc34)C(=O)N12 (stereo partly drawn) | 30.5 µM (inactive) | 20 µM (inactive) | 18 µM (inactive) |  | 37.7 µM (inactive) | 25.8 µM (inactive) | 24.2 µM (inactive) | 18.7 µM (inactive) | 17.5 µM (inactive) | 28.5 | 27.6 µM (inactive) | 25.5 µM (inactive) | 18.2 µM (inactive) | 15.9 µM (inactive) | 17.4 µM (inactive) | 22.1 µM (inactive) | 18.4 µM (inactive) | 22.6 µM (inactive) | 32.7 µM (inactive) | 24.4 µM (inactive)
COc1ccc(/C=C/C(=O)c2ccc(OC(=O)/C=C/c3ccccc3)cc2)cc1 | 25.1 µM (inactive) | 45.1 µM (inactive) | 18.7 µM (inactive) | 19.4 µM (inactive) | 11.9 µM (inactive) | > 85.7 µM (inactive) | 14.5 µM (inactive) | 25.7 µM (inactive) | 19 µM (inactive) | 15.7 | 5.93 µM (inactive) | 21 µM (inactive) | 32 µM (inactive) | 16.6 µM (inactive) | 41.7 µM (inactive) | 16.7 µM (inactive) | 41 µM (inactive) | 14.9 µM (inactive) | 59.3 µM (inactive) | 18.9 µM (inactive)
Cc1cc(N(CCC#N)CCC#N)ccc1C(/N=N\c1ccc([N+](=O)[O-])cc1)=N\NC(=O)c1cc(Cl)ccc1O | 26.7 µM (inactive) | 34.4 µM (inactive) | 25.5 µM (inactive) | 25.1 µM (inactive) | 46.3 µM (inactive) | > 100 µM (inactive) | 51.3 µM (inactive) | 23 µM (inactive) | 46.1 µM (inactive) | 29.6 | 35.2 µM (inactive) | 15.6 µM (inactive) | 14.2 µM (inactive) | 20.3 µM (inactive) | 28.6 µM (inactive) |  | 28.1 µM (inactive) | 34.8 µM (inactive) | 25.5 µM (inactive) | 24.2 µM (inactive)
NC(Cc1ccc(OCc2ccccc2)cn1)C(=O)OCc1ccccc1 (stereo not drawn) | > 100 µM (inactive) |  | > 100 µM (inactive) | > 100 µM (inactive) | > 100 µM (inactive) | > 100 µM (inactive) | > 100 µM (inactive) | > 100 µM (inactive) | > 100 µM (inactive) | > 100 | > 100 µM (inactive) | > 100 µM (inactive) | > 100 µM (inactive) |  | > 100 µM (inactive) | > 100 µM (inactive) | > 100 µM (inactive) | > 100 µM (inactive) | > 100 µM (inactive) | > 100 µM (inactive)
CC(=O)OCCCCn1nncc1Cn1ccc(=O)n(Cc2cnnn2CCCCOC(C)=O)c1=O | > 100 µM (inactive) | > 100 µM (inactive) | > 100 µM (inactive) |  | > 100 µM (inactive) | > 100 µM (inactive) | > 100 µM (inactive) | > 100 µM (inactive) | > 100 µM (inactive) | > 100 |  | > 100 µM (inactive) | > 100 µM (inactive) | > 100 µM (inactive) | > 100 µM (inactive) | > 100 µM (inactive) | > 100 µM (inactive) | > 100 µM (inactive) | > 100 µM (inactive) | > 100 µM (inactive)

From ChEMBL document CHEMBL1201862, “PubChem BioAssay data set” (2004)
